Measurements as given in patent publication US8815935B2, “Inhibitors of protein prenyltransferases” (The Regents of the University of California, priority 2008, dated 2014).

Assays:
RabGGTase = target: T1, RabGGTase (Rattus norvegicus, UniProt Q08602+Q08603); test: In vitro RabGGTase (GGTase-II) assay with REP-1; assay type: biochemical
T1 construct: purchased JENA BIOSCIENCE
T1 sequence (Q08602 1-567): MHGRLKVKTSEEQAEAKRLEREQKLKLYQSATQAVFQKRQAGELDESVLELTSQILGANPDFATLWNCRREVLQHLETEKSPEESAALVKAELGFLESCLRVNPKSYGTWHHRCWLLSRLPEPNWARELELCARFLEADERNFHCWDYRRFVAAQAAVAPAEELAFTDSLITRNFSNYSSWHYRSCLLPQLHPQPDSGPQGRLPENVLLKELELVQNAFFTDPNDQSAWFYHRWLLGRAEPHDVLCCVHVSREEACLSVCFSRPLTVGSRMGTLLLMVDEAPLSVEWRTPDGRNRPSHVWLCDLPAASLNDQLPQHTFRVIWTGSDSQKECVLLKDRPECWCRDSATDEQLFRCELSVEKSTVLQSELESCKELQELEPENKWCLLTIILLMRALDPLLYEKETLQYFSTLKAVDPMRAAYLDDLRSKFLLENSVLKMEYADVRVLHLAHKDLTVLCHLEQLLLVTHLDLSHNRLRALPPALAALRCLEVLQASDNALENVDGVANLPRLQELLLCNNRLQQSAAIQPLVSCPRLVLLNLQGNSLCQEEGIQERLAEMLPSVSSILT
T1 sequence (Q08603 1-331): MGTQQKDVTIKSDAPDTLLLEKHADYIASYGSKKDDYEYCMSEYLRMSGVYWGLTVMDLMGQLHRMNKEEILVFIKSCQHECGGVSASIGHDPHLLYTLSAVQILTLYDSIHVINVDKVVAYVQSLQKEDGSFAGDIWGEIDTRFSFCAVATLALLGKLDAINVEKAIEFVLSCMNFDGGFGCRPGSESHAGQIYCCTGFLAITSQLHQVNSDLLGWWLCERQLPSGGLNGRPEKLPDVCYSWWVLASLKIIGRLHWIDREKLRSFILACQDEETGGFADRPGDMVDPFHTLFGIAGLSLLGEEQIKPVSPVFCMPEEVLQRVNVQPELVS
Method: The GGTase-I assay was carried out using RhoA as a substrate protein, GGTase-I (JENA Bioscience) and [3H]geranylgeranyl pyrophosphate. Incubation was for 30 min at 37° C. GGTase-II (or RabGGTase) assay was carried out using YPTI as a substrate protein, GGTase-II (Calbiochem, San Diego, Calif.) plus REP1 (Calbiochem) and [3H]geranylgeranyl pyrophosphate. Incubation was for 30 min at 37° C. FIGS. 20D-20F show the three dimensional structure of GGTase I (D), FTsse (E) and GGTase II (F) which can be obtained from X-ray diffraction studies of protein crystals.
For RabGGTase assays, the reaction contained the following components in 20 μl; 0.625 μl of [^3H]-GGPP (0.7 μM), 25 nM RabGGTase, 0.6 μM REP-1, 0.6 μM purified Rab7 or Ypt1 protein, 40 mM HEPES (pH 7.5), 150 mM NaCl, 5 mM DTT, 3 mM MgCl2 and 0.3% CHAPS. Reactions were carried out for 20 min at 37° C. and the products were analyzed as described above for the GGTase-I reaction. Graphing and Michaelis-Menten analysis were performed using Prism version5 (GraphPad, San Diego Calif.).

MDA-MB-231 [1] = test: MDA-MB-231 cell growth inhibition; assay type: cell-based, human; settings: Homo sapiens, MDA-MB-231, 72 h; 3 days, CCK-8, vs DMSO; read-out: IC50, MDA-MB-231 (Breast)
Method: (§1) In FIG. 9-24 in vitro IC50 values for the GGTase I activity are reported. In Tables 7-15 in cell GI50 values for the growth inhibition of a variety of cancer cell lines (e.g., Jurkat, K562, MDA-MB-231, BT474, MCF7, MiaPaCa2, Aspc-1, Panc-1, Capan-2, CFpac-1, and MCF10a) are reported.
(§2) Cell viability was determined by Cell Counting Kit-8 (CCK-8, Dojindo, Kumamoto, Japan) as described previously (31). Cell viability was calculated relative to the DMSO control. Cell cycle profile was analyzed by flow cytometry as described previously (32).

Panc-1 = Panc-1 cell growth inhibition; assay type: cell-based, human; settings: Homo sapiens, PANC-1, 72 h; 3 days, CCK-8, vs DMSO; read-out: IC50, PANC-1 (Pancreas)
Method: as §1
Panc-1 cells (Pancreatic cancer cell line) and Jurkat cells (T-cell leukemia) were treated with 12.5 μM of P5-H6 or 12.5 μM of mP5-H6a for 72 hours. The cell number was counted as described in Example 5.
as §2

Capan-2 = Capan-2 cell growth inhibition; assay type: cell-based, human; settings: Homo sapiens, Capan-2, 72 h; 3 days, CCK-8, vs DMSO; read-out: IC50, Capan-2 (Pancreas)
Method: as §1, §2

SE-Mk2 = SE-Mk2 cell growth inhibition; assay type: cell-based; settings: Homo sapiens, SEMK2, 144 h; 6 days, CCK-8, vs DMSO; read-out: IC50, SE-Mk2 (Blood)
Method: as §2

HPAC = HPAC cell growth inhibition; assay type: cell-based; settings: Homo sapiens, 72 h, 3 days, CCK-8, vs DMSO, read-out: IC50, HPAC (Pancreas)
Method: as §2

MDA-MB-231 [2] = test: Cell cycle distribution by flow cytometry, MDA-MB-231; assay type: cell-based, human; settings: 10 μM, 48 hours
Method: as §2

p21CIP1/WAF1 promoter = test: p21 promoter luciferase reporter assay in NIH3T3 cells; assay type: cell-based; settings: NIH3T3, 48 hours, dose dependent
Method: For the p21^WAF1/CIP1 promoter luciferase assay, NIH3T3 cells were transfected with p21^WAF1/CIP1 promoter-Luc or vector plasmids (33) (both plasmids are provided by Dr. Genhong Cheng). Cells were treated with GGTI compounds. Promega luciferase assay kit was used according to the manufacturer's protocol.
Another mechanism through which GGTI can effect cell cycle progression is to inhibit RhoA which negatively regulates expression of a Cdk inhibitor p21^CIP1/WAF1. To investigate whether the GGTI compounds described herein can induce p21^CIP1/WAF1 expression, luciferase transcriptional activation from the p21^CIP1/WAF1 promoter (33) was measured. Transient expression systems with NIH3T3 cells were used to examine the ability of P61-A6 to induce p21^CIP1/WAF1-luciferase expression. P61-A6 induced significant (4-fold) inductions of luciferase activity versus DMSO in a dose dependence manner (FIG. 37C).

SMILES | inhibition of RabGGTase (RabGGTase; even at 50,000 nM) | inhibition of RabGGTase activity (RabGGTase; concentration increased to 100,000 nM) | IC50 (MDA-MB-231 [1]) [µM] | IC50 (Panc-1) [µM] | IC50 (Capan-2) [µM] | IC50 (SE-Mk2) [µM] | IC50 (HPAC) [µM] | Percent G2/M, MDA-MB-231 (MDA-MB-231 [2]; DMSO 7.74) [%] | Percent G0/G1, MDA-MB-231 (MDA-MB-231 [2]; DMSO 73.78) [%] | induction of p21CIP1/WAF1-luciferase activity versus DMSO (p21CIP1/WAF1 promoter) [fold]
Cc1ccccc1S(=O)(=O)N1[C@@H](c2cccc(Cl)c2)C(C(=O)O)=CC[C@H]1c1ccc(Cl)cc1 [P3-E5] | little inhibition | – | – | – | – | – | – | – | – | –
Cc1ccccc1S(=O)(=O)N1C(c2ccc(Cl)cc2)C(C(=O)NC(Cc2ccccc2)C(N)=O)=CC1C(C)(C)C (stereo not shown) [P61-A6] | – | No significant inhibition | 8.7 | 5.2 | 11.5 | 6.4 | 3.9 | 5.15 | 85.16 | 4
